Source: US20220073495A1 (priority 2020, published 2022)
Where two headings read alike, the source gives them in different places.

Key:
[1] = tested on: A/WSN/33; experiment: microbe, parasite or virus in culture; type: cell-based, influenza virus
[2] = tested on: A549 cells; conditions: human
[3] = in vitro; conditions: human
[4] = tested on: viral M mRNA; experiment: High-throughput smRNA-FISH screen for viral M mRNA processing and nuclear export; type: cell-based, influenza A/WSN/33 virus; conditions: 2.5 μM, A/WSN/33
[5] = tested on: viral M mRNA; experiment: smRNA-FISH of M mRNA in WSN-infected cells; type: cell-based, influenza virus (WSN); conditions: 2.5 μM, WSN MOI 2 for 8 h
[6] = tested on: A549 cells; experiment: MTT cytotoxicity assay; conditions: 48 h, MTT, concentrations used for compound 2
[7] = unidentified influenza virus, WSN, A549, 24 h, read-out: WSN IC50, A549 cells, A/WSN/33 MOI 0.01, 24 h post infection, NP-positive cells
[8] = unidentified influenza virus, WSN, A549, 24 h, read-out: WSN IC90, A549 cells, A/WSN/33 MOI 0.01, 24 h post infection, NP-positive cells
[9] = read-out: WSN IC50, A549 cells, A/WSN/33 MOI 0.01, 24 h post infection, NP-positive cells
[10] = read-out: WSN IC90, A549 cells, A/WSN/33 MOI 0.01, 24 h post infection, NP-positive cells

Row | Compound | IC50 [1, 7] | IC90 [1, 8] | 24 h MTT CC10 [2] | CC50 [3] | other results
1 | Cc1ccc(NC(=O)CCC2=Nc3ccccc3C2)nc1 [Compound 16] | 30.9 µM | > 50 µM | 7.382 µM |  | CC50 [2]: > 50 µM
2 | Brc1ccc(CSc2nc3ccccc3[nH]2)cc1 [Compound 17] | > 50 µM | > 50 µM | 19.818 µM | > 50 µM | 
3 | CCn1c(SCC(=O)Nc2ccc(Br)cn2)nc2ccccc21 [Compound 18] | 38.4 µM | > 50 µM | 47.499 µM | > 50 µM | 
4 | C=CCn1c(SCC(=O)Nc2ccc(Br)cn2)nc2ccccc21 [Compound 19] | > 50 µM | > 50 µM | 18.984 µM | > 50 µM | 
5 | Cc1ccc(NC(=O)CSc2nc3ccccc3[nH]2)nc1 [Compound 20] |  |  | 7.855 µM | > 50 µM | IC50 [1, 9]: > 50 µM; IC90 [1, 10]: > 50 µM
6 | COc1ccc(NC(=O)CSc2nc3ccccc3[nH]2)nc1 [Compound 21] | 17.6 µM | 45.4 µM | 4.69 µM | > 50 µM | 
7 | O=C(CSc1nc2ccccc2[nH]1)Nc1ccc(F)cn1 [Compound 22] | 43.3 µM | > 50 µM | 31.688 µM | > 50 µM | 
8 | Brc1ccc(CSc2nc3ccccc3[nH]2)nc1 [Compound 23] | > 50 µM | > 50 µM | 37.461 µM | > 50 µM | 
9 | Cc1ccc(NC(=O)CSc2nc3ccccc3[nH]2)nc1 [Compound 24] |  |  | 5.552 µM |  | IC50 [1, 9]: 8.7 µM; IC90 [1, 10]: 24.5 µM; CC50 [2]: > 50 µM
10 | Cc1ccc2[nH]c(SCC(=O)Nc3ccc(Br)cn3)nc2c1 [Compound 26] | 25.5 µM | > 50 µM | 6.797 µM |  | CC50 [2]: 49.7 µM
11 | O=C(CSc1nc2cc(F)ccc2[nH]1)Nc1ccc(Br)cn1 [Compound 27] | 16.1 µM | 18.2 µM | 2.905 µM | > 50 µM | 
12 | COc1ccc2[nH]c(SCC(=O)Nc3ccc(Br)cn3)nc2c1 [Compound 28] | 46.5 µM | 50 µM | 7.52 µM | > 50 µM | 
13 | OC[C@H]1O[C@@H](n2cnc3cc(Cl)c(Cl)cc32)[C@H](O)[C@@H]1O [DRB, 5,6-dichloro-1-β-D-ribofuranosylbenzimidazole] |  |  |  |  | viral M mRNA nuclear retention [4]: positive control for viral M mRNA nuclear retention
14 | COc1ccc(-n2c(SC(C)C(=O)Nc3ccc(C)cc3Cl)nc3ccccc32)cc1 (stereo not shown) [JMN3-003, reference compound] |  |  |  |  | nuclear export of viral M mRNA [5]: does not inhibit; total M mRNA fluorescence intensity [5]: decreased
15 | ivermectin [reference compound] |  |  |  |  | cytotoxicity (cell viability) [6]: positive control for cytotoxicity
